Reference: US20220411471A1, “CELL-PERMEABLE CYCLIC PEPTIDES AND USES THEREOF” (Unnatural Products Inc., priority 2019, published 2022)
Non-standard residues stand in square brackets, D forms with d. Residues, ends and D or L forms follow the SMILES beside them. ξ: configuration not given here. Ala(4-thiazolyl) = N[C@@H](Cc1cscn1)C(=O)O; NMePhe(4-F) = CN[C@@H](Cc1ccc(F)cc1)C(=O)O; Phe(4-Cl) = N[C@@H](Cc1ccc(Cl)cc1)C(=O)O; Phe(4-F) = N[C@@H](Cc1ccc(F)cc1)C(=O)O; NMeThr(3ξ) = CN[C@H](C(=O)O)C(C)O; NMeF = CN[C@@H](Cc1ccccc1)C(=O)O; Tle = CC(C)(C)[C@H](N)C(=O)O; Pip = O=C(O)[C@@H]1CCCCN1; hSer = N[C@@H](CCO)C(=O)O; NMeA = CN[C@@H](C)C(=O)O; dNMeA = CN[C@H](C)C(=O)O; Nme = COCCNCC(=O)O

How the values were obtained:
[1] = target: T1, Human MDM4 (HDM4) 1-114 (Homo sapiens, UniProt O15151); assay: Fluorescence polarization assay 2, MDM4 (Table 4); type: binding; settings: Table 4; fluorescence polarization; read-out: MDM4 IC50
T1 construct: Human MDM4 (HDM4) 1-114
T1 sequence (O15151 1-114): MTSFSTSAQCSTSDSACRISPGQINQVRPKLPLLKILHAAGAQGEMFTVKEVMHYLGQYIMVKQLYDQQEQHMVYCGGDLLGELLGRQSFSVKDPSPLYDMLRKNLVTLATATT
Protocol: (§1) Compounds dissolved in DMSO were pin transferred (˜100-200 nL) to the 384 well plate containing the MDM4/p53 solution. After incubation for 60 minutes, the fluorescence polarization was read on a Molecular Devices SpectraMax plate reader equipped with a Fluorescein FP cartridge. In addition to probe alone (positive control) and probe/MDM4 (negative control), a titration of linear p53(18-26) was included on every plate as an additional control. IC50 values were fit using either Prism or Collaborative Drug Discovery.

[2] = target: T2, Human MDM2 (HDM2) 1-116 (Homo sapiens, UniProt Q00987); assay: Fluorescence polarization assay 2, MDM2 (Table 4); type: binding; settings: Table 4; fluorescence polarization; read-out: MDM2 IC50
T2 construct: Human MDM2 (HDM2) 1-116
Protocol: as §1, with “MDM2/p53” for “MDM4/p53”, “probe/MDM2” for “probe/MDM4”

[3] = Pharmacokinetic parameters of Compound 35, intravenous, mice; type: in vivo; settings: mouse, 1 mg/kg, plasma
Protocol: Mice were treated intravenously with Compound 35 (1 mg/kg) and plasma was collected at various timepoints to determine pharmacokinetic parameters. The change in mean plasma concentration over time is shown in FIG. 5, and all pharmacokinetic parameters obtained are summarized in Table 2: […]

[4] = test system: MOLM-13 cells; assay: Cellular fluorescence assay (resazurin, 72 hours); type: cell-based
Protocol: MOLM-13 cells were grown in suspension in T75 flasks in RPMI medium with 10% fetal bovine serum (FBS) at 37° C. with 5% CO2. 40 μL of MOLM-13 cells were plated into columns 1-22 of black, clear bottom, 384 well plates at a density of 1,500 cells per well in PRMI with 10% FBS. Columns 23 and 24 were filled with 40 μL of media as a positive control. 100 nL of compounds dissolved in DMSO were pin transferred into columns 3-22 of the 384 well plate. Columns 1 and 2 served as negative control wells. Plates were incubated for 72 hours at 37° C. with 5% CO2. After incubation, the cells were given 10 μL of 2 mM Resazurin in RPMI with 10% FBS and incubated for 3 hours. The fluorescence intensity was read on a Molecular Devices SpectraMax i3x plate reader (Excitation wavelength=535 nm, Emission wavelength=585 nm).

T2 sequence (Q00987 1-116): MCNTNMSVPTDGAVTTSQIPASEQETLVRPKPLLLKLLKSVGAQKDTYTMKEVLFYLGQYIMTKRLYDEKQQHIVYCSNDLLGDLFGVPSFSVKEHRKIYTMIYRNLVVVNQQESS

Structure (SMILES): COCC[C@@H]1NC(=O)[C@H]2CCCN2C(=O)[C@H](Cc2ccccc2)N(C)C(=O)[C@H](Cc2ccc(Cl)cc2)NC(=O)[C@H](C(C)(C)C)NC(=O)[C@H](Cc2ccc(F)cc2)NC(=O)CN(CCOC)C(=O)[C@@H](C)N(C)C(=O)[C@H](Cc2cscn2)NC(=O)[C@H](C)N(C)C1=O [Compound 35, COCC[C@@H]1NC(=O)[C@H]2CCCN2C(=O)[C@H](CC2=CC=CC=C2)N(C)C(=O)[C@H](CC2=CC=C(Cl)C=C2)NC(=O)[C@@H](NC(=O)[C@H](CC2=CC=C(F)C=C2)NC(=O)CN(CCOC)C(=O)[C@@H](C)N(C)C(=O)[C@H](CC2=CSC=N2)NC(=O)[C@H](C)N(C)C1=O)C(C)(C)C] (cyclo([Ala(4-thiazolyl)][dNMeA][Nme][Phe(4-F)][Tle][Phe(4-Cl)][NMeF][dP][hSer](Me)[NMeA]))
- IC50 [1]: > 150 nM
- IC50 [2]: 50 to 100 nM
- AUC(0-inf) [3]: 1040 ng·h/mL
- AUC(0-t) [3]: 1040 ng·h/mL
- Cmax [3]: 3570 ng/mL
- MRT inf [3]: 9 min
- MRT last [3]: 7.8 min
- Tmax [3]: 4.8 min
- clearance [3]: 16 mL/min/kg
- half-life [3]: 62.4 min
- Vd ([3]; read-out: Vss): 0.14 L/kg

Structure (SMILES): COCC[C@@H]1NC(=O)[C@H]2CCCN2C(=O)[C@H](Cc2ccccc2)N(C)C(=O)[C@H](Cc2ccc(Cl)cc2)NC(=O)[C@H]([C@@H](C)O)NC(=O)[C@H](Cc2ccc(F)cc2)NC(=O)CN(CCOC)C(=O)[C@@H](C)N(C)C(=O)[C@H](Cc2cscn2)NC(=O)[C@H](C)N(C)C1=O [Compound 39, COCC[C@@H]1NC(=O)[C@H]2CCCN2C(=O)[C@H](CC2=CC=CC=C2)N(C)C(=O)[C@H](CC2=CC=C(Cl)C=C2)NC(=O)[C@@H](NC(=O)[C@H](CC2=CC=C(F)C=C2)NC(=O)CN(CCOC)C(=O)[C@@H](C)N(C)C(=O)[C@H](CC2=CSC=N2)NC(=O)[C@H](C)N(C)C1=O)C(C)O] (cyclo([hSer](Me)[NMeA][Ala(4-thiazolyl)][dNMeA][Nme][Phe(4-F)]T[Phe(4-Cl)][NMeF][dP]))
- IC50 [4]: 100 to 150 nM

Structure (SMILES): COCC[C@@H]1NC(=O)[C@H]2CCCN2C(=O)[C@H](Cc2ccc(F)cc2)N(C)C(=O)[C@H](Cc2ccc(Cl)cc2)NC(=O)[C@H](C(C)O)N(C)C(=O)[C@H](Cc2ccc(F)cc2)NC(=O)CN(CCOC)C(=O)[C@@H](C)N(C)C(=O)[C@H](Cc2cscn2)NC(=O)[C@H](C)N(C)C1=O (some centres unmarked) [Compound 45, COCC[C@@H]1NC(=O)[C@H]2CCCN2C(=O)[C@H](Cc2ccc(F)cc2)N(C)C(=O)[C@H](Cc2ccc(Cl)cc2)NC(=O)[C@H]([C@@@H](C)O)N(C)C(=O)[C@H](Cc2ccc(F)cc2)NC(=O)CN(CCOC)C(=O)[C@@H](C)N(C)C(=O)[C@H](Cc2cscn2)NC(=O)[C@H](C)N(C)C1=O] (cyclo([Ala(4-thiazolyl)][dNMeA][Nme][Phe(4-F)][NMeThr(3ξ)][Phe(4-Cl)][NMePhe(4-F)][dP][hSer](Me)[NMeA]))
- IC50 [4]: 50 to 100 nM

Structure (SMILES): COCC[C@@H]1NC(=O)[C@H]2CCCN2C(=O)[C@H](Cc2ccc(F)cc2)N(C)C(=O)[C@H](Cc2ccc(Cl)cc2)NC(=O)[C@@H]2CCCCN2C(=O)[C@H](Cc2ccc(F)cc2)NC(=O)CN(CCOC)C(=O)[C@@H](C)N(C)C(=O)[C@H](Cc2cscn2)NC(=O)[C@H](C)N(C)C1=O [Compound 46, COCC[C@@H]1NC(=O)[C@H]2CCCN2C(=O)[C@H](Cc2ccc(F)cc2)N(C)C(=O)[C@H](Cc2ccc(Cl)cc2)NC(=O)[C@@H]2CCCCN2C(=O)[C@H](Cc2ccc(F)cc2)NC(=O)CN(CCOC)C(=O)[C@@H](C)N(C)C(=O)[C@H](Cc2cscn2)NC(=O)[C@H](C)N(C)C1=O] (cyclo([Ala(4-thiazolyl)][dNMeA][Nme][Phe(4-F)][Pip][Phe(4-Cl)][NMePhe(4-F)][dP][hSer](Me)[NMeA]))
- IC50 [1]: 100 to 150 nM
- IC50 [2]: 50 to 100 nM

Structure (SMILES): COCC[C@@H]1NC(=O)[C@H]2CCCN2C(=O)[C@H](Cc2ccc(F)cc2)N(C)C(=O)[C@H](Cc2ccc(Cl)cc2)NC(=O)[C@@H]2CCCN2C(=O)[C@H](Cc2ccc(F)cc2)NC(=O)CN(CCOC)C(=O)[C@@H](C)N(C)C(=O)[C@H](Cc2cscn2)NC(=O)[C@H](C)N(C)C1=O [Compound 47, COCC[C@@H]1NC([C@H]2CCCN2C([C@@H](N(C([C@@H](NC([C@@H]3CCCN3C([C@@H](NC(CN(C([C@H](N(C([C@@H](NC([C@@H](N(C1=O)C)C)=O)Cc4ncsc4)=O)C)C)=O)CCOC)=O)Cc5ccc(F)cc5)=O)=O)Cc6ccc(Cl)cc6)=O)C)Cc7ccc(F)cc7)=O)=O] (cyclo([Ala(4-thiazolyl)][dNMeA][Nme][Phe(4-F)]P[Phe(4-Cl)][NMePhe(4-F)][dP][hSer](Me)[NMeA]))
- IC50 [1]: 100 to 150 nM
- IC50 [2]: 25 to 50 nM
